Legend:
CD2F1 male mice = assay: 30-day survival following lethal total body irradiation; assay type: in vivo
Procedure: In this Example, the effects of systemic administration of RRx-001 on survival in response to a lethal dose of radiation was assayed in mice. CD2F1 male mice 9.5-11 weeks old were administered a single dose of RRx-001 by intraperitoneal (IP) injection 24 hours prior to a lethal radiation dose. 24 mice received 10 mg/kg RRx-001 (formulated in 5% DMSO in sterile H2O) and 24 mice received the vehicle control (5% DMSO in sterile H2O only).
The mice were subjected to total body irradiation (TBI) with 9.35 Gy (LD70/30) at 0.6 Gy/min using High-level Cobalt-60. Unanesthetized mice were placed in well-ventilated Plexiglas restrainers and irradiated bilaterally. Sham-irradiated mice were also placed in identical Plexiglas restrainers and kept in a room shielded from irradiation at the same time. In each experiment, the dose to the abdominal cores of the animals was delivered at a dose rate of approximately 0.6 Gy/min. Dosimetry was performed prior to the irradiation of the animals using the highly accurate alanine/electron spin resonance (ESR) dosimetry system (American Society for Testing and Materials, Standard E 1607) to measure dose rates (to water) in the cores of acrylic mouse phantoms, which were located in the compartments of the exposure rack. A calibration curve based on standard alanine calibration dosimeters provided by the National Institute of Standards and Technology (NIST, Gaithersburg, Md.) was used to measure the doses. The accuracy of the dose rate calibrations has been verified several times using the services of the National Physics Laboratory (UK National Standards Laboratory, London, UK) and the M.D. Anderson Cancer Center (Houston, Tex.). The corrections applied to the measured dose rates in the phantoms were for a small difference in the Co-60 energy between the mass energy-absorption coefficients for soft tissue and water, as well as source decay. The radiation field was uniform within ±1.2%.
Mice were monitored at least twice a day for 30 days post-irradiation. During the critical period (days 10-20), mice were monitored at least three times a day with no more than 10 hours between observations. Mice displaying any signs of discomfort received food in their cage as a wet mash. Mice displaying overt dyspnea, weight loss, lethargy, or other markers of moribundity and appearing to be in distress were humanely euthanized in a separate room using carbon dioxide gas followed by cervical dislocation after breathing stopped as a confirmatory method of euthanasia. This experiment was repeated for a total of n=24 mice per group.
Survival curves were estimated using the Kaplan-Meier method and were compared using a two-sided log-rank test at the 0.05 significance level. P-values were considered statistically significant if less than 0.05.

heme oxygenase 1 (HO-1) = assay: Western blot of ARE protein expression in hMSC: HO-1; assay type: cell-based, human; conditions: 5 mM RRx-001 for 16 hours
Procedure: (§1) Antioxidant response element (ARE) genes such as heme oxygenase 1 (HO-1), NAD(P)H Dehydrogenase [Quinone] 1 (NQO-1) and Superoxide Dismutase (SOD) are involved in the detoxification and elimination of reactive oxidants.
(§2) Expression of ARE proteins was assayed in hMSC, macrophages, and monocytes following in vitro irradiation of the cells, which were pretreated with RRx-001 or vehicle. Protein expression was assayed by Western blotting and protein quantification.
(§3) hMSC were treated for 16 hours with […] RRx-001 or the vehicle control (0.05% DMSO), irradiated at 10 Gy or sham-irradiated and the protein collected 8 or 24 hours post-sham or irradiation. Human monocytic leukemic THP-1 and U937 cells were differentiated into macrophages with 50 nM Phorbol 12-myristate 13-acetate (PMA) for 24 hours before treatment. Differentiated and non-differentiated cells were treated with […] RRx-001 or 0.05% DMSO (vehicle control) for 16 hours prior to radiation. The cells were irradiated at 5 Gy or sham-irradiated and collected 4-8 hours later for both analysis. For each experiment, duplicates of each sample were run.

[1] = test system: NAD(P)H Dehydrogenase [Quinone] 1 (NQO-1); assay: Western blot of ARE protein expression in hMSC: NQO-1; assay type: cell-based, human; conditions: 5 mM RRx-001 for 16 hours, all groups
Procedure: as §1, §2, §3

superoxide dismutase = assay: Superoxide dismutase activity assay in hMSC; assay type: cell-based, human; conditions: 5 mM RRx-001 for 16 hours, 8 hours after 10 Gy irradiation
Procedure: The activity of superoxide dismutase activity was also assayed in hMSC. hMSC were treated for 16 hours with […] RRx-001 or vehicle, irradiated at 10 Gy or sham-irradiated and whole cell homogenate collected according to the manufacture's protocol. The assay measures the activity of all three forms of SOD. The amount of SOD activity (U/mL) was normalized to protein levels.

NQO-1 = assay: Western blot of NQO-1 in U937 macrophages; assay type: cell-based, human; conditions: 3 mM RRx-001 for 16 hours, sham and irradiated groups
Procedure: as §2, §3

[2] = test system: male Syrian Golden Hamsters; assay: Oral mucositis induced by acute radiation in hamsters; assay type: in vivo
Procedure: In this example, the ability of RRx-001 to treat oral mucositis induced by acute radiation was assess in hamsters.
Fifty-six (56) male Syrian Golden Hamsters were used in the study. Mucositis was induced by administering an acute radiation dose of 40 Gy directed to the left buccal cheek pouch on Day 0 at a rate of 2-2.5 Gy/min. Mucositis was evaluated clinically starting on Day 6 and continuing on alternate days until Day 28. Hamsters reaching a mucositis severity score of 4 or higher received buprenorphine (0.5 mg/kg) SC twice a day for 48 hours or until score dropped below 4.
Dosing was scheduled as follows: for animals in Groups 1-4, animals were dosed with RRx-001 (1, 3, or 10 mg/kg) or vehicle (1:2 DMA:PEG400 vol:vol ratio) once a day (QD) on Days −4, −1, 1, 4, 7, 11, 14, 18, 21, and 25 via intraperitoneal (IP) administration; animals in Groups 5-7 were dosed QD with RRx-001 (1, 3, or 10 mg/kg) on Days −4, −1, 1, 8, 15, and 22.
The significance of differences observed between the control and treatment group was evaluated by comparing the days with mucositis scores≥3 and <3 between groups using chi-square analysis. […] The percentage of animal days with a score of ≥3 in the Vehicle Group was 57.29%. […] There were numerous days where animals dosed with RRx-001 had percent ulceration days that were lower (which can be interpreted as ameliorative of disease severity) in comparison to vehicle-dosed animals.
An analysis of the severity of mucositis was performed using the Mann-Whitney rank sum analysis to compare the visual mucositis scores for the treatment group to the Vehicle control group on each day of evaluation. In this analysis, 2 days of significant reduction in the mucositis score are generally required before it is regarded as meaningful.

[3] = 10 mg/kg 24 hours prior to lethal TBI, vs vehicle control

O=C(CBr)N1CC([N+](=O)[O-])([N+](=O)[O-])C1 [RRx-001, 2-bromo-1-(3,3-dinitroazetidin-1-yl)ethan-1-one]
increase in mean survival time (CD2F1 male mice; [3]): 7 days
increase in survival (CD2F1 male mice; [3]): 33.4%
survival times, means±standard errors (CD2F1 male mice; 10 mg/kg IP 24 hours prior to 9.35 Gy TBI, 30-day observation, N=24/group): 27.2 ± 1.1 days
reduction in the 30-day death risk (CD2F1 male mice; one dose of 10 mg/kg IP 24 hours prior to 9.35 Gy (LD70/30) TBI, vs vehicle control irradiated mice): ~33.4%
increase in HO-1 expression (heme oxygenase 1 (HO-1); 24 hours post-sham or irradiation): 2-3.5 fold
increase in HO-1 expression (heme oxygenase 1 (HO-1); sham and 10 Gy irradiated groups, 8 hours post-sham or irradiation): 22-26 fold
NQO-1 expression [1]: slightly reduced
Superoxide Dismutase Activity (superoxide dismutase): did not increase
NQO-1 expression (NQO-1): no change
percent ulceration (mucositis score ≥3) ([2]; 10 mg/kg, Groups 2 and 5, only dosed on Days −4, −1, and 1): best response in decreasing percent ulceration
percent days of ulceration, twice weekly dosing vs dosing one time per week ([2]; 3 and 1 mg/kg concentrations (Groups 4 vs. Group 7)): more beneficial effects on percent days of ulceration
mean daily mucositis scores ([2]; Group 2: 10 mg/kg IP, dosing terminated after Day 1, 40 Gy to left buccal cheek pouch): modest but significant enhancement of disease healing
percentage of days with a mucositis score of ≥3 in comparison to the Vehicle Group ([2]; Group 2: 10 mg/kg on Days −4, −1, 1, chi-square, p<0.01): statistically lower
mean daily mucositis scores ([2]; all other treatment groups (Groups 3-7: 1, 3 or 10 mg/kg IP)): tracked fairly close to each other, and with Vehicle dosed controls
mucositis scores compared to the Vehicle control group ([2]; animals dosed with 1 mg/kg): multiple days of significant improvement
mucositis scores compared to the Vehicle control group ([2]; animals dosed with 10 mg/kg): multiple days of significant improvement

— patent US20200345689A1, “METHODS AND CO[…] RRx-001 FOR RADIOPROTECTION” (EpicentRx, Inc., priority 2018, published 2020)
